Laboratory results published in patent US20080221074A1, “Drug Screen and Treatment Method” (priority 2006, published 2008).

How the values were obtained:
[1] = test system: insulin sensitivity in db/db diabetic mice; experiment: hyperinsulinemic-euglycemic clamp; format: in vivo; conditions: oral gavage 14 days; insulin 10 mU/kg/min
Protocol: Glucose lowering in 8 week old db/db diabetic mice. The hyperinsulinemic-euglycemic clamp protocol was conducted to measure insulin sensitivity in vivo. In this procedure, insulin was administered to raise the insulin concentration while glucose was infused to maintain euglycemia or a fixed, normal blood glucose level (about 180 mg/dL). […] The objective of this protocol was to investigate characterize the capacity of 17α-ethynylandrost-5-ene-3β,7β,17β-triol and androst-5-ene-3β,7β,16α,17β-tetrol to ameliorate systemic insulin resistance and improve whole body glucose disposal in the hyperinsulinemic-euglycemic clamp model. The degree of skeletal muscle and hepatic insulin sensitivity and tissue specific glucose uptake were also assessed. The animals were dosed daily by oral gavage for 14 days. On Day 10 of treatment catheters were implanted in the carotid artery and jugular vein. On the day of the clamp (day 14) the compound was administered at 7:30 am.
Body weight and glucose concentration were assessed on day 0, 7 and day 14 of treatment. On day 14 a euglycemic hyperinsulinemic clamp was performed. Food was removed at 7:30 am at 10:30 a primed continuous infusion of [3-^3H]-glucose (0.05 μCi/min). A baseline blood sample was taken at 12:50 (−10 min) and at 1:00 (0 min) a euglycemic hyperinsulinemic clamp was initiated by administering 10 mU /kg/min of insulin. Glucose was infused at a variable rate to clamp the glucose concentration at ˜180 mg/dl. A bolus of [^14C]-2deoxyglucose was given at the end of the study to assess tissue specific glucose uptake. Plasma ^14C 2-deoxyglucose was assessed at 122, 125, 130, 135, 145 min. […]
Analysis was conducted as follows. Plasma samples were deproteinized with Ba(OH)2 (0.3 N) and ZnSO4 (0.3 N), dried and radioactivity was assessed on scintillation counter (Packard TRICARB 2900 TR, Meriden, Conn.). […] One supernatant was directly counted to determine radioactivity from both [14C] […] A second aliquot was treated with Ba(OH)2 and ZnSO4 to remove ^14C DGP and any tracer incorporated into glycogen and then counted to determine radioactivity from free [^14C]DG(2). [^14C]DGP was calculated as the difference between the two aliquots. […] Rg, an index of tissue specific glucose uptake was calculated as previously described (E.W. Kraegen et al., Am. J. Physiol., 248:E353-E362, 1985). Whole body glucose turnover was calculated as the ratio of the ^3H glucose infusion rate (dpm/kg/min) and arterial plasma glucose specific activity (dpm/mg). Endogenous glucose production was calculated as the difference between the whole body glucose turnover and the exogenous glucose infusion rate (R. N. Bergman et al., Endocr. Rev., 6:45-86, 1985).

[2] = test system: popliteal lymph node cells; experiment: reporter antigen popliteal lymph node (PLN) assay; format: in vivo, BALB/C mice
Excerpt: Analysis of immune suppression. Glucocorticoid steroids such as dexamethasone or hydrocortisone are typically immune suppressive and have significant toxicities associated with their use. Immune suppression was examined in a reporter antigen popliteal lymph node assay in mice essentially as previously described (C. Goebel et al., Inflamm. Res., 45(Suppl. 2):S85-S90, 1996; R. Pieters et al., Environmental Health Perspectives 107(Suppl. 5):673-677, 1999). […] In this protocol, the vehicle was 0.1% carboxymethylcellulose, 0.9% saline, 2% tween 80 and 0.05% phenol, which contained 17α-ethynylandrost-5-ene-3β,7β,17β-triol in suspension in drug treated animals. Assessment of activity included (1) measuring suppression of numbers of total lymphocytes, antigen specific IgM, IgG1 and IgG2a antibody secreting cells (ASC) (ELISPOT assay) in popliteal lymph node cells; (2) analysis of cell surface marker (CD4, CD8, CD19, F480, CD80, CD86) expression by flow cytometry of living cells in suspension; and (3) IL-4, TNFα and IFNγ production by lymphocytes in vitro (ELISA).
Groups (n=5 per group) of specific pathogen free BALB/C mice were used. The Positive control group was treated with vehicle (oral gavage) and 5 μg/day dexamethasone by subcutaneous injection to induce immune suppression. Vehicle control animals (negative control) were treated with vehicle alone (oral gavage). One group of animals was treated with 17α-ethynylandrost-5-ene-3β,7β,17β-triol at 0.1 mg/day by oral gavage. Another group was treated with 1 mg/day of 17α-ethynylandrost-5-ene-3β,7β,17β-triol was administered to the animals oral gavage. The results were analyzed by two-tailed Student's t-test with equal variance. The animals were injected in the right hind footpad with 50 μL of freshly prepared sensitizing dose of TNP-OVA. […] Single cell suspensions were prepared, resuspended in 1 mL PBS-BSA (1%) and counted. Cell numbers, IL-4, IL-5 and IFNγ were measured.

[3] = test system: human MG-63 osteosarcoma cell line; experiment: reversal of dexamethasone effects in MG-63 osteoblasts; format: cell-based; conditions: 30 nM dexamethasone; compound concentration stated with each value (17α-ethynyl triol: 1 nM)

With `C#C[C@]1(O)CC[C@H]2[C@@H]3[C@@H](O)C=C4C[C@@H](O)CC[C@]4(C)[C@H]3CC[C@@]21C` [17α-ethynylandrost-5-ene-3β,7β,17β-triol] the “glucose infusion rate compared to vehicle control” value [1] was “increased the glucose infusion rate”, the “average number of lymphocytes in PLNs” value ([2]; 0.1 mg/day oral gavage) was 11.1×10^6 per lymph node and the “IFNγ, IL-4 and IL-5 levels compared to vehicle control” value ([2]; compound 1.0 and 0.1 mg/day, dexamethasone 5 μg/day) was “increased”. The “reversal of the decrease in osteoprotegerin synthesis” value [3] was “completely reversed the decrease in osteoprotegerin synthesis”.
